Results taken from article PMC12420824, “Discovery of a selective alpha-kinase 1 inhibitor for the rare genetic disease ROSAH syndrome” (Nature Communications, 2025).

Tests used:
Assay in all cases: HotSpot kinase assay
Conditions in all cases: read-out: % Enzyme Activity (relative to DMSO control), 10 uM
TYRO3/SKY = TYRO3/SKY (Homo sapiens, UniProt Q06418)
Text: (§1) Additionally, a 10-dose dilution series of staurosporine and other enzyme-appropriate compounds were included as positive control inhibitors.

CAMK1g = CAMK1g (Homo sapiens, UniProt Q96NX5)
Text: as §1

MLK2/MAP3K10 = MLK2/MAP3K10 (Homo sapiens, UniProt Q02779)
Text: as §1

PKCd = PKCd (Homo sapiens, UniProt Q05655)
HIPK4 = HIPK4 (Homo sapiens, UniProt Q8NE63)
PIM1 = PIM1 (Homo sapiens, UniProt P11309)
Text: as §1

NEK11 = NEK11 (Homo sapiens, UniProt Q8NG66)
Text: as §1

PKCeta = PKCeta (Homo sapiens, UniProt P24723)
Text: as §1

KDR/VEGFR2 = KDR/VEGFR2 (Homo sapiens, UniProt P35968)
Aurora B = Aurora B (Homo sapiens, UniProt Q96GD4)
Text: as §1

SYK = SYK (Homo sapiens, UniProt P43405)
Text: as §1

KSR2 = KSR2 (Homo sapiens, UniProt Q6VAB6)
Text: as §1

EIF2AK3 = EIF2AK3 (Homo sapiens, UniProt Q9NZJ5)
Text: as §1

MAST3 = MAST3 (Homo sapiens, UniProt O60307)
Text: as §1

HPK1/MAP4K1 = HPK1/MAP4K1 (Homo sapiens, UniProt Q92918)
Text: as §1

LIMK2 = LIMK2 (Homo sapiens, UniProt P53671)
Text: as §1

PKD2/PRKD2 = PKD2/PRKD2 (Homo sapiens, UniProt Q9BZL6)
Text: as §1

MYLK4 = MYLK4 (Homo sapiens, UniProt Q86YV6)
Text: as §1

SIK2 = SIK2 (Homo sapiens, UniProt Q9H0K1)
Text: as §1

ABL2/ARG = ABL2/ARG (Homo sapiens, UniProt P42684)
MEK2 = MEK2 (Homo sapiens, UniProt P36507)
MARK2/PAR-1Ba = MARK2/PAR-1Ba (Homo sapiens, UniProt Q7KZI7)
JNK3 = JNK3 (Homo sapiens, UniProt P53779)
Text: as §1

CK1G3 = CK1G3 (Homo sapiens, UniProt Q9Y6M4)
Text: as §1

CDK3/cyclin E = CDK3/cyclin E (Homo sapiens, UniProt Q00526)
Text: as §1

ROCK1 = ROCK1 (Homo sapiens, UniProt Q13464)
Text: as §1

CK1g1 = CK1g1 (Homo sapiens, UniProt Q9HCP0)
Text: as §1

EPHA5 = EPHA5 (Homo sapiens, UniProt P54756)
Text: as §1

FYN = FYN (Homo sapiens, UniProt P06241)
TSSK2 = TSSK2 (Homo sapiens, UniProt Q96PF2)
Text: as §1

PAK5 = PAK5 (Homo sapiens, UniProt Q9P286)
Text: as §1

TYK1/LTK = TYK1/LTK (Homo sapiens, UniProt P29376)
MEK5 = MEK5 (Homo sapiens, UniProt Q13163)
Text: as §1

CDK1/cyclin A = CDK1/cyclin A (Homo sapiens, UniProt P06493)
Text: as §1

MARK4 = MARK4 (Homo sapiens, UniProt Q96L34)
Text: as §1

MAPKAPK3 = MAPKAPK3 (Homo sapiens, UniProt Q16644)
Text: as §1

GRK7 = GRK7 (Homo sapiens, UniProt Q8WTQ7)
Text: as §1

PAK3 = PAK3 (Homo sapiens, UniProt O75914)
Text: as §1

FGFR3 = FGFR3 (Homo sapiens, UniProt P22607)
Text: as §1

EPHA4 = EPHA4 (Homo sapiens, UniProt P54764)
Text: as §1

Chain of EPHA5 (P54756 25-1037): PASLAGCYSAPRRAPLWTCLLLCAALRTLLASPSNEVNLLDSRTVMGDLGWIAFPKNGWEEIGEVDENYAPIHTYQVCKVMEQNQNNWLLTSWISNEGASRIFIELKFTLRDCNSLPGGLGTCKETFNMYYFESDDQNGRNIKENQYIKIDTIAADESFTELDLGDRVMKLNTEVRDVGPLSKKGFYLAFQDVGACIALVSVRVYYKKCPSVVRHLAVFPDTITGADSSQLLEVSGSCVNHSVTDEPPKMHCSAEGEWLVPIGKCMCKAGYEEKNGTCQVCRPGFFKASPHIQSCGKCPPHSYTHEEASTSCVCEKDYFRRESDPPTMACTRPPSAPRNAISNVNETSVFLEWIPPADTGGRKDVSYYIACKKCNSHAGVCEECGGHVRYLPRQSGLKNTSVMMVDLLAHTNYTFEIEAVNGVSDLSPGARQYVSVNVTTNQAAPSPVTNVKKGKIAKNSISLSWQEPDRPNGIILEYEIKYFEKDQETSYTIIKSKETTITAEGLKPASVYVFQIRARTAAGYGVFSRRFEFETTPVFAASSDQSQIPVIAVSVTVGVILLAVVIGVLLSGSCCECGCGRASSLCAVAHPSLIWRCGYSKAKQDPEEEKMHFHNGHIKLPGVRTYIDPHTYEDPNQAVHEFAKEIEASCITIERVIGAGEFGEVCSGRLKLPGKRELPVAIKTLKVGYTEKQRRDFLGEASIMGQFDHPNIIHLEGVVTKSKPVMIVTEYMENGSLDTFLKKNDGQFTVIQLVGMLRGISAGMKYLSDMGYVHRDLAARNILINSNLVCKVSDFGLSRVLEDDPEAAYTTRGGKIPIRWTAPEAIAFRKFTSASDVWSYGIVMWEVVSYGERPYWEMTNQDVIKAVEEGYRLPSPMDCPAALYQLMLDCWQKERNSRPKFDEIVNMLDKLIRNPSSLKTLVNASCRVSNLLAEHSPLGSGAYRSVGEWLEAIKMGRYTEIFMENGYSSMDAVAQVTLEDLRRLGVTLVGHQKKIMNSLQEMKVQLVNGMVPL
Chain of MLK2/MAP3K10 (Q02779 whole entry): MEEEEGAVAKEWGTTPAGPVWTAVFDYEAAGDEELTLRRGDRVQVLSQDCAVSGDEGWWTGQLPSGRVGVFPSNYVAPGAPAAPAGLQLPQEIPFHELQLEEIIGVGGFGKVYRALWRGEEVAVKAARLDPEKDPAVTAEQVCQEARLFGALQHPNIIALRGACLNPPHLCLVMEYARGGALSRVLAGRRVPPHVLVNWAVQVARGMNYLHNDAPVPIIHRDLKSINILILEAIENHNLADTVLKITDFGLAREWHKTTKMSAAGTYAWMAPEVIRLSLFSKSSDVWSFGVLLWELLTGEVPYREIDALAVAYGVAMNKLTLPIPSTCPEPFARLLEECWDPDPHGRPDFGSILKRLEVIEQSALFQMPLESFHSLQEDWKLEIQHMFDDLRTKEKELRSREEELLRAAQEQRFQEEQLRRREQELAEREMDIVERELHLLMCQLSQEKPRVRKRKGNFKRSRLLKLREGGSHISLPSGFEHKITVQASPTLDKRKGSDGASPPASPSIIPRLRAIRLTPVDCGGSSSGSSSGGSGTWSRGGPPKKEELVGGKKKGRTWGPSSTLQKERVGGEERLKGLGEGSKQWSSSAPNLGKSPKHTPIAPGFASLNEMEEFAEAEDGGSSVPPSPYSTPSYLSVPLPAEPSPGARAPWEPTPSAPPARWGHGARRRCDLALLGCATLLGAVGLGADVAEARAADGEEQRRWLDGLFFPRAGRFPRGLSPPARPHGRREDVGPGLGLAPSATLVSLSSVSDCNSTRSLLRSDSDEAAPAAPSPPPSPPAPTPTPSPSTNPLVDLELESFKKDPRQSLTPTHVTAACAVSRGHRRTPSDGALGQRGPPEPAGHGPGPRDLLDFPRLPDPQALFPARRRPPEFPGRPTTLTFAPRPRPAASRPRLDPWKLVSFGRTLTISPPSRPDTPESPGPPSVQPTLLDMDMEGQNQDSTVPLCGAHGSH
Chain of SIK2 (Q9H0K1 whole entry): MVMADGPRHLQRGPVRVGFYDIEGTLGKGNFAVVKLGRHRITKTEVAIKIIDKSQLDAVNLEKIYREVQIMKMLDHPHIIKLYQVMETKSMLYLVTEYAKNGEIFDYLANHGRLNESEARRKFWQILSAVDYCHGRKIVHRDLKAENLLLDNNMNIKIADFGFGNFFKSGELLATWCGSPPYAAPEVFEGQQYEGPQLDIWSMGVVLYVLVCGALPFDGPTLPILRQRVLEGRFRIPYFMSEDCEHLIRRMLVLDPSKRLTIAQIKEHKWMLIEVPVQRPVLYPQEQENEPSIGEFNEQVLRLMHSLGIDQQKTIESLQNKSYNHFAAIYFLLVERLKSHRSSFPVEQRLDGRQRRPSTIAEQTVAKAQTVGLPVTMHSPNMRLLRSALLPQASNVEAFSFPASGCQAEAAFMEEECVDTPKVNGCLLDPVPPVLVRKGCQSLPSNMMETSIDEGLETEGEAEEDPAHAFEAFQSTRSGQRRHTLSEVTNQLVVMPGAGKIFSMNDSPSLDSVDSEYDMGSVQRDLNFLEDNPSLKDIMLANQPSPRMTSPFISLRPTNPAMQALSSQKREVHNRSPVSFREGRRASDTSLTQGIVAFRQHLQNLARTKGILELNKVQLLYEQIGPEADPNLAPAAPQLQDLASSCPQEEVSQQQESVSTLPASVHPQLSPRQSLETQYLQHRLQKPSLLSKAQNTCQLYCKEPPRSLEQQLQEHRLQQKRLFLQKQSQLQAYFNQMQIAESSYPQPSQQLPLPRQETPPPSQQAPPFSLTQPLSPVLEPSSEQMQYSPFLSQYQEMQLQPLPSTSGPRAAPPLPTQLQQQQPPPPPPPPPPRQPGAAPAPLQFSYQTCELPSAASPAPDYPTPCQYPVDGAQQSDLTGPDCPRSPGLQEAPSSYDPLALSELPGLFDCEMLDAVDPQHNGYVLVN
Chain of PKD2/PRKD2 (Q9BZL6 whole entry): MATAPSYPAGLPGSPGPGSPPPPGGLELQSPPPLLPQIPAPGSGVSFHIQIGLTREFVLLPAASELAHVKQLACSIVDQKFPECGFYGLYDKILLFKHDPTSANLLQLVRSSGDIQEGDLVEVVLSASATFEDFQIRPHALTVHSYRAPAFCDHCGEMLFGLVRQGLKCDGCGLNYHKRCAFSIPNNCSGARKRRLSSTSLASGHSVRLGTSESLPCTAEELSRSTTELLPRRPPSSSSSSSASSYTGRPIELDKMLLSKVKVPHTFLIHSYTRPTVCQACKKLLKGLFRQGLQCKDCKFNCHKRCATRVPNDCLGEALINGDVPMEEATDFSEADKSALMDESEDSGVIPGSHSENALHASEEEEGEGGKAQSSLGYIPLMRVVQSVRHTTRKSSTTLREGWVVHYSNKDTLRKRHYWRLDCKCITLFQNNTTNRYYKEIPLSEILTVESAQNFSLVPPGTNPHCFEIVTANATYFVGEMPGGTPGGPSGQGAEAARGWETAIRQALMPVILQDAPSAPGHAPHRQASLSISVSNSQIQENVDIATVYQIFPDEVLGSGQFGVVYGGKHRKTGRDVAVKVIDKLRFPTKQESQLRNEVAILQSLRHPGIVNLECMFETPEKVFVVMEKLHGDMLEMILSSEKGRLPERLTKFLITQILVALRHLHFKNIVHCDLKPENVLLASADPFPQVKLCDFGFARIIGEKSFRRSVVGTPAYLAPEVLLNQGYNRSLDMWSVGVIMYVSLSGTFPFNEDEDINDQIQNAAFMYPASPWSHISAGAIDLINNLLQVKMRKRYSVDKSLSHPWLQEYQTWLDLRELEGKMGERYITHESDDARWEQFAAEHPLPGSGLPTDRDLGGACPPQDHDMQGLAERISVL
Chain of MARK2/PAR-1Ba (Q7KZI7 whole entry): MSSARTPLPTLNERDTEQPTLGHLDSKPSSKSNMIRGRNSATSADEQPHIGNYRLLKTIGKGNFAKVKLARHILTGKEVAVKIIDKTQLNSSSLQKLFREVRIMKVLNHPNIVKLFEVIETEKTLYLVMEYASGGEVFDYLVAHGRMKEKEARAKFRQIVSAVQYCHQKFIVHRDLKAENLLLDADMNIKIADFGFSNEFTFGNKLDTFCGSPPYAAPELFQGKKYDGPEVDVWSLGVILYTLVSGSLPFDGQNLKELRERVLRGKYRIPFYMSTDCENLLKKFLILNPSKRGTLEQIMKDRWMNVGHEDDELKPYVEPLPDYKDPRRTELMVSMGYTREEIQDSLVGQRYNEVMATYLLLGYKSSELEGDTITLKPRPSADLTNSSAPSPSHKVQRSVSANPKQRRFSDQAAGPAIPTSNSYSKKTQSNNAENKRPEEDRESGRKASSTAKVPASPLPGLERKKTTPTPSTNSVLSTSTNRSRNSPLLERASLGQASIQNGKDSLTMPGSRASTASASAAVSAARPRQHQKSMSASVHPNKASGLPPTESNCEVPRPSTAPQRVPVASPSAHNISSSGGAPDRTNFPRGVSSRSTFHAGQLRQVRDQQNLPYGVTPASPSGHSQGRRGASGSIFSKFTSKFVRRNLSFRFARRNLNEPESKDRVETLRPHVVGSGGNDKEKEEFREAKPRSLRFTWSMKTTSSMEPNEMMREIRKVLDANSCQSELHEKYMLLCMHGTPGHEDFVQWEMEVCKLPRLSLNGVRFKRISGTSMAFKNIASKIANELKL
Chain of CK1g1 (Q9HCP0 whole entry): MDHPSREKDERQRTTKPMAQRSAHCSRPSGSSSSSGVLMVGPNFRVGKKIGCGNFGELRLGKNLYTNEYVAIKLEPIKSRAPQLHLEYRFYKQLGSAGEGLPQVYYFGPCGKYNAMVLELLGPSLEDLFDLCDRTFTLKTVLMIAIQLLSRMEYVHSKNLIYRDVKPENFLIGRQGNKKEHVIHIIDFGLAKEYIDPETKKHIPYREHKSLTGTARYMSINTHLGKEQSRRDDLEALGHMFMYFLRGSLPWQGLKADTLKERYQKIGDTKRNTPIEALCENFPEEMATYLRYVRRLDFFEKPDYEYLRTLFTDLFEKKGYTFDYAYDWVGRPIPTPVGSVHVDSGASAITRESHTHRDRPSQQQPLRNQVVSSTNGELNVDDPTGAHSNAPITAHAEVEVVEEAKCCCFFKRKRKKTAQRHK

C#C[C@@](C)(c1ccc(Cl)cc1)c1csc(NC(=O)c2c(F)cc(N3CCNCC3)cc2F)n1 (stereo in doubt) [DF-003]
remaining activity at 10 µM (TYRO3/SKY): 51.8% | remaining activity at 10 µM (CAMK1g): 56.6% | remaining activity at 10 µM (MLK2/MAP3K10): 67.5% | remaining activity at 10 µM (PKCd): 69.8% | remaining activity at 10 µM (HIPK4): 73.6% | remaining activity at 10 µM (PIM1): 74% | remaining activity at 10 µM (NEK11): 75.3% | remaining activity at 10 µM (PKCeta): 75.3% | remaining activity at 10 µM (KDR/VEGFR2): 76% | remaining activity at 10 µM (Aurora B): 76.5% | remaining activity at 10 µM (SYK): 78.8% | remaining activity at 10 µM (KSR2): 79.5% | remaining activity at 10 µM (EIF2AK3): 81.9% | remaining activity at 10 µM (MAST3): 82.3% | remaining activity at 10 µM (HPK1/MAP4K1): 83.3% | remaining activity at 10 µM (LIMK2): 85.2% | remaining activity at 10 µM (PKD2/PRKD2): 85.9% | remaining activity at 10 µM (MYLK4): 87.1% | remaining activity at 10 µM (SIK2): 88.5% | remaining activity at 10 µM (ABL2/ARG): 89.2% | remaining activity at 10 µM (MEK2): 89.8% | remaining activity at 10 µM (MARK2/PAR-1Ba): 91.2% | remaining activity at 10 µM (JNK3): 92.2% | remaining activity at 10 µM (CK1G3): 92.5% | remaining activity at 10 µM (CDK3/cyclin E): 94.6% | remaining activity at 10 µM (ROCK1): 94.8% | remaining activity at 10 µM (CK1g1): 95% | remaining activity at 10 µM (EPHA5): 95.5% | remaining activity at 10 µM (FYN): 98.7% | remaining activity at 10 µM (TSSK2): 101% | remaining activity at 10 µM (PAK5): 104% | remaining activity at 10 µM (TYK1/LTK): 105% | remaining activity at 10 µM (MEK5): 109% | remaining activity at 10 µM (CDK1/cyclin A): 109% | remaining activity at 10 µM (MARK4): 110% | remaining activity at 10 µM (MAPKAPK3): 112% | remaining activity at 10 µM (GRK7): 114% | remaining activity at 10 µM (PAK3): 117% | remaining activity at 10 µM (FGFR3): 136% | remaining activity at 10 µM (EPHA4): 161%
